The values below are quoted from earlier work in patent US8759371B2, “Heterocyclic compounds and their uses” (Amgen Inc., priority 2010, dated 2014).

The structures appear in SMILES notation.

The subject of series [1] is rheumatoid arthritis model. The following applies: in vivo.
The subject of series [2] is systemic lupus erythematosis model. The following applies: in vivo.
In series [3] the target is T1, p110δ (Homo sapiens, UniProt O00329).
T1 sequence (O00329 1-1044): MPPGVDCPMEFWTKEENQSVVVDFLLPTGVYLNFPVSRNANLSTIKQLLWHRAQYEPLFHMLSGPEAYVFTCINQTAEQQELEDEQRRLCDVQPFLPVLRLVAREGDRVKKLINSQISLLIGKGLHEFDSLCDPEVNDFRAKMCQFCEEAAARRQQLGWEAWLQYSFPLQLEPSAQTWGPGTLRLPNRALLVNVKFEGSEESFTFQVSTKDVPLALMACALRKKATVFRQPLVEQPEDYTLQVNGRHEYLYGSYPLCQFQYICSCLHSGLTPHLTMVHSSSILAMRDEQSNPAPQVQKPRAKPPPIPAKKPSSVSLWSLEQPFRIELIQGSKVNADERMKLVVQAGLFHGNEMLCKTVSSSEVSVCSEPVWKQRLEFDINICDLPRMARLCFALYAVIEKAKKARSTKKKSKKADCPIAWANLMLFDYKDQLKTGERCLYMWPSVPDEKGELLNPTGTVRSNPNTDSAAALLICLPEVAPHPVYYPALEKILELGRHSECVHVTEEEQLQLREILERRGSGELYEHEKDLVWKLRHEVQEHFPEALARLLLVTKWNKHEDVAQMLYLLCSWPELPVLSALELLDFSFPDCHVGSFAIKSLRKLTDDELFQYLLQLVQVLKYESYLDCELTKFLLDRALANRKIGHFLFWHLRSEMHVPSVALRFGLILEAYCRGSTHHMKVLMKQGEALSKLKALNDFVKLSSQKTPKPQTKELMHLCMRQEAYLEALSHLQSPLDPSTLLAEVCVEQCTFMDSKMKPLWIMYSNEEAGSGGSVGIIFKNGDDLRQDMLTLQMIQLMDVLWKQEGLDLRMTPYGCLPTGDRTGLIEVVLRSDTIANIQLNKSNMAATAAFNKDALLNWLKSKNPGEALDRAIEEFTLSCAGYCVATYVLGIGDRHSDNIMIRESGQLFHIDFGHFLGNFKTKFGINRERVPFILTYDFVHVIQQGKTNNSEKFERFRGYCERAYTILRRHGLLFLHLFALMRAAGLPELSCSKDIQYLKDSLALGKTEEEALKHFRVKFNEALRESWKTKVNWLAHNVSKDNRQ

For series [4], the system named is protein kinases.
The test system of series [5] is passive cutaneous anaphylaxis (PCA). The following applies: absence of functional delta (IC 87114 and p110δ D910A mice).
Series [6] relates to ovalbumin-induced airway inflammation.

Take `O=C1NC(=O)/C(=C\c2ccc3nccnc3c2)S1` [AS 605240]: in series [1], the “efficacy in mouse model of rheumatoid arthritis” value is “efficacious”. Further, the “onset of disease in model of systemic lupus erythematosis” value in series [2] is reported as “delay onset of disease”.

Turning to `Cc1ccccc1-n1c(Cn2cnc3c(N)ncnc32)nc2cccc(C)c2c1=O` [IC87114], the “inhibits p110δ” value in series [3] was “high nanomolar range (triple digit)”. For the same molecule, in series [4], the “activity against any protein kinases tested” value is reported as “no activity”. Further, the “passive cutaneous anaphylaxis (PCA)” value in series [5] is recorded as “significantly reduced”. Also, the “inflammation and disease in murine model of asthma” value in series [6] was “significantly ameliorate inflammation and disease”.
